Tests used:
MYO3B (human) = MYO3B (human) (UniProt Q8WXR4); experiment: radiometric filter-binding kinase assay, Kinase HotSpot; details: compound 0.5 µM; ATP 10 µM
BRAF (human) = BRAF (human) (UniProt P15056); experiment: as above; details: compound 0.5 µM; ATP 10 µM
BRAF (human), sequence (P15056 whole entry, looked up): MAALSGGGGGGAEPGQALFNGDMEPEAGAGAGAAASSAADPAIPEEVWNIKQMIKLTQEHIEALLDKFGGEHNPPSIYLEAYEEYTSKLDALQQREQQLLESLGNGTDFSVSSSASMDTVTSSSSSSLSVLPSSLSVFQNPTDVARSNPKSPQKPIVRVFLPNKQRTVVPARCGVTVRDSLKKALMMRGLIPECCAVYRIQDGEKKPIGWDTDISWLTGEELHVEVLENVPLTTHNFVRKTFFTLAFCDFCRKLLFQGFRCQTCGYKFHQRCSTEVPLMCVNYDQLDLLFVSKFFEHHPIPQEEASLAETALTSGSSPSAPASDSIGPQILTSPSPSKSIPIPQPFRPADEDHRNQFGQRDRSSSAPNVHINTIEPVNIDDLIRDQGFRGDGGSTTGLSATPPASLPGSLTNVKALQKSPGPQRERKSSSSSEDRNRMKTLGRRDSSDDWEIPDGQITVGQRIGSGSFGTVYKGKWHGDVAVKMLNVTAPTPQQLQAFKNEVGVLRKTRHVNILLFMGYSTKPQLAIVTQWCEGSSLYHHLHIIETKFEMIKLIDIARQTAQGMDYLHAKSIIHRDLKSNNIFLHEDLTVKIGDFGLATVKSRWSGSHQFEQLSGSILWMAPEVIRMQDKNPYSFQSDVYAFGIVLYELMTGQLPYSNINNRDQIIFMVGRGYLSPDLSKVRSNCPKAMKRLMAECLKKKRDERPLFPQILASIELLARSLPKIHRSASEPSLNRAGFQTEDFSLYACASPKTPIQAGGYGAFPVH

MYO3B (human), sequence (Q8WXR4 whole entry, looked up): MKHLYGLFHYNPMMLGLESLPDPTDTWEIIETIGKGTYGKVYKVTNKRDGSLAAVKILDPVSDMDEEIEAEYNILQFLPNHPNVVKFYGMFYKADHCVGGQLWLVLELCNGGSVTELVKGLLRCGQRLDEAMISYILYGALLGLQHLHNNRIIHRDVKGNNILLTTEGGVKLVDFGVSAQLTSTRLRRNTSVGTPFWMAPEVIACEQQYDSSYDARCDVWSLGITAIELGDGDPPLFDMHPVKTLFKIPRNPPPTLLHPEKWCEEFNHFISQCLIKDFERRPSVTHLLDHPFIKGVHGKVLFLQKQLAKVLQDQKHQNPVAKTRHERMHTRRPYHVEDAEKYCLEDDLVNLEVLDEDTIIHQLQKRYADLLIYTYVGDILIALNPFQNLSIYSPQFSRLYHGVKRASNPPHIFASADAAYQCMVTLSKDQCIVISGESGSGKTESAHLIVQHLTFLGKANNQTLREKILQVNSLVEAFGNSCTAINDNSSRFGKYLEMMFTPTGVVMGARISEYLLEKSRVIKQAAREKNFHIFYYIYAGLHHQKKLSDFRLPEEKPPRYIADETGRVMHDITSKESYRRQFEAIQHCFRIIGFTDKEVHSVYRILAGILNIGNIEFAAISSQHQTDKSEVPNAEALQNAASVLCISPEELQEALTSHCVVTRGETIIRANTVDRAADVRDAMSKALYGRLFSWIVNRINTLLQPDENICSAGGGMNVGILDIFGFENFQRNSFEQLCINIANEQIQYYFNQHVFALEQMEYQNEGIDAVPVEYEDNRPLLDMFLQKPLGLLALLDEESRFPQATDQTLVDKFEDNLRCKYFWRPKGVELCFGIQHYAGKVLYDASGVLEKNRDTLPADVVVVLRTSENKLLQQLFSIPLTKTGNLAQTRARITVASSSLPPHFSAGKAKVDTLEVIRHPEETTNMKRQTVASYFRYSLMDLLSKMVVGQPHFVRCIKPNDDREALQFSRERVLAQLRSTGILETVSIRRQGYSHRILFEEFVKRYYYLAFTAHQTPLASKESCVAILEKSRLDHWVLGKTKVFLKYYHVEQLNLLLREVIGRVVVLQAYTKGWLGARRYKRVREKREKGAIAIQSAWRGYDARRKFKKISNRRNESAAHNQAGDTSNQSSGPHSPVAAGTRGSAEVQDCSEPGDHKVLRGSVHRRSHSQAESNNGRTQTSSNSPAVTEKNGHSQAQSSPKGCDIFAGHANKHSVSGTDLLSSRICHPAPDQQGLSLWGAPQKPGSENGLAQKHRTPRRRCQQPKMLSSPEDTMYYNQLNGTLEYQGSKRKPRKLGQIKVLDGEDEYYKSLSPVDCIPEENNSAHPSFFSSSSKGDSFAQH

Structure (SMILES)	residual activity (MYO3B (human)) [%]	residual activity (BRAF (human)) [%]
N#C/C(=C\c1ccc(O)c(O)c1)C(=O)NCc1ccccc1	88.3	109
CN(C)c1ccc(/C=C2\C(=O)Nc3ccccc32)cc1		101
C[C@@H]1CCN(C(=O)CC#N)C[C@@H]1N(C)c1ncnc2[nH]ccc12	89.3	93.7
COc1cc(Nc2c(C#N)cnc3cc(OCCCN4CCN(C)CC4)c(OC)cc23)c(Cl)cc1Cl	40.3	91.7
O=C1Nc2ccc(Br)cc2/C1=C\c1cc2c([nH]1)CCCC2	55.1	92.5
O=C1C(Cl)=C(N2C(=O)CCC2=O)C(=O)c2ccccc21	112	96.3
Cc1cccc(-c2nc(C(C)(C)C)[nH]c2-c2ccc3c(c2)OCO3)n1	79.2	111
COc1ccc(S(=O)(=O)N(CCO)c2ccccc2CN(C)C/C=C/c2ccc(Cl)cc2)cc1	90.2	
Cn1c2ccccc2c2c3c(c4c5ccccc5n(CCC#N)c4c21)CNC3=O		110
CN(C)S(=O)(=O)c1ccc2c(c1)/C(=C/c1cc3c([nH]1)CCCC3)C(=O)N2	98.9	89.2
COc1cc2ncnc(Nc3ccc(Oc4ccccc4)cc3)c2cc1OC	103	79.6
O=C1NC(=O)c2c1c1c3ccccc3[nH]c1n1cncc21		101
N#Cc1c[nH]c2c[nH]/c(=N\Cc3cccnc3)cc2/c1=N\c1ccc(F)c(Cl)c1	87.9	106
COc1ccc2c(c1)/C(=C/c1cnc[nH]1)C(O)=N2	88	98.4
c1ccc2c(-c3ccncc3)c[nH]c2c1	96.4	94
O=C(c1cc2cc(O)ccc2[nH]1)c1cc2cc(O)ccc2[nH]1		97.4
CS(=O)(=O)CCNCc1ccc(-c2ccc3ncnc(Nc4ccc(OCc5cccc(F)c5)c(Cl)c4)c3c2)o1	96.1	
CN(C)CCCn1cc(C2=C(c3c[nH]c4ccccc34)C(=O)NC2=O)c2ccccc21		103
O=C1c2ccccc2-c2nc3nnnn3nc21	88.4	
Fc1ccc(-c2nc3n(c2-c2ccncc2)CCS3)cc1	102	
Cc1cncc2cccc(S(=O)(=O)N3CCCN(C(=O)CN)C[C@H]3C)c12	104	
Cc1nc(-c2ccccc2)c(-c2ccncc2)o1	108	
COc1ccc(Cl)cc1NC(=O)Nc1cc(C)nc2ccccc12		98.9
CO[C@@H]1[C@H](N(C)C(=O)c2ccccc2)C[C@H]2O[C@]1(C)n1c3ccccc3c3c4c(c5c6ccccc6n2c5c31)C(=O)NC4	53.7	106

Reference: the kinase profiling compilation of Christmann-Franck et al. (2016)
